Some test systems named below: EKVX; MDA-MB-435; NCI/ADR-RES; HCT-15; MDA-MB-231; SK-MEL-5; T47D; COLO 205; NCI-H460; CAKI-1; TK-10; UO-31; SN12C; SR; HCC 2998; SF-539; SK-MEL-28; A498; NCI-H226.
What all share (experiment): inhibition of tumour cell growth, NCI panel, 48 h

The structures appear in SMILES notation.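 The compound was tested at five concentrations on cells cultured in 96-well plates, with a 48-hour exposure period. GI50: concentration for 50% inhibition of growth.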 Activity calls are given as the source filed them. Rule as the data show it: active = GI50 up to about 1.1 µM and inactive = higher. Where only a bound is given, the exact number is not on record here.

Turning to `OCC1OC(OCC(O)C(O)C(O)C(/C=N/Nc2ccccc2)=N/Nc2ccccc2)C(O)C(O)C1O` (configuration not stated), the GI50 in the test on EKVX is > 100 µM (inactive); in the test on MDA-MB-435, > 100 µM (inactive); in the test on NCI/ADR-RES, > 100 µM (inactive); with HCT-15, more than 100 µM; with MDA-MB-231, > 100 µM (inactive); with SK-MEL-5, > 100 µM (inactive). The GI50 with T47D was 17 µM (inactive); with COLO 205 it was 44.6 µM (inactive); in the test with NCI-H460, 30.9 µM (inactive); in the test with CAKI-1, 34.4 µM (inactive); with TK-10, > 100 µM (inactive); with UO-31, 30.4 µM (inactive). The GI50 was > 100 µM (inactive) in the test with SN12C; > 100 µM (inactive) with SR; > 100 µM (inactive) in the test on HCC 2998; 79.3 µM (inactive) in the test with SF-539; > 100 µM (inactive) in the test with SK-MEL-28.
Consider `O=C(NCCN1CCOCC1)c1ccc2cc(C(=O)N3CC(CCl)c4ccc([N+](=O)[O-])cc43)[nH]c2c1` (configuration not stated), for which the GI50 in the test on EKVX was 16.6 µM (inactive); with MDA-MB-435, 15.5 µM (inactive); in the test on NCI/ADR-RES, > 100 µM (inactive); in the test with HCT-15, 19.1 µM; in the test on MDA-MB-231 it was 15.5 µM (inactive); with SK-MEL-5 it was 2.54 µM (inactive). Besides, the GI50 with T47D is 26.2 µM (inactive); with A498 it was 7.03 µM (inactive); in the test on COLO 205 it was 25 µM (inactive); with NCI-H460, 11.4 µM (inactive); in the test with CAKI-1, 24.2 µM (inactive); in the test on TK-10, 16.9 µM (inactive). Besides, the GI50 was 43.4 µM (inactive) with UO-31; 19.2 µM (inactive) in the test with SN12C; 15 µM (inactive) with HCC 2998; 60.4 µM (inactive) in the test on SF-539; 27.3 µM (inactive) in the test with NCI-H226; 6.62 µM (inactive) in the test on SK-MEL-28.
In the case of `CC1OC(NCCNCCNC2OC(C)C(O)C(O)C2O)C(O)C(O)C1O` (configuration not stated), the GI50 in the test on EKVX is > 100 µM (inactive); in the test on NCI/ADR-RES it was > 100 µM (inactive); in the test on HCT-15, more than 100 µM; with MDA-MB-231, > 100 µM (inactive); with SK-MEL-5, > 100 µM (inactive); with T47D it was > 100 µM (inactive). For the same molecule, the GI50 in the test with A498, in the test with COLO 205, in the test on NCI-H460, in the test with TK-10, in the test with UO-31 and in the test on SN12C was > 100 µM (inactive) each time. Further, the GI50 in the test on SR, with SF-539, in the test with NCI-H226 and in the test with SK-MEL-28 was > 100 µM (inactive) throughout.
Regarding `O=[N+]([O-])/C(C(Cl)=C(Cl)Cl)=C(\N1CCOCC1)n1nnc2ccccc21`, the GI50 was 17.9 µM (inactive) in the test with EKVX; 17 µM (inactive) with MDA-MB-435; 25.9 µM (inactive) in the test on NCI/ADR-RES; 15.4 µM in the test on HCT-15; 17.5 µM (inactive) in the test with MDA-MB-231; 17.6 µM (inactive) with SK-MEL-5. Further, the GI50 in the test with T47D is 16.9 µM (inactive); in the test on A498, 16.9 µM (inactive); in the test on COLO 205, 18.8 µM (inactive); with NCI-H460 it was 19.4 µM (inactive); in the test with CAKI-1, 17.7 µM (inactive); in the test with TK-10 it was 29.3 µM (inactive). Moreover, the GI50 with UO-31 is 17.8 µM (inactive); in the test on SN12C it was 19.3 µM (inactive); in the test with SF-539, 15.4 µM (inactive); in the test on NCI-H226 it was 26.8 µM (inactive); in the test with SK-MEL-28, 22.5 µM (inactive).
Regarding `Oc1c(Cl)c(Cl)c(O)c(CCNc2nccs2)c1Cl`, the GI50 in the test on EKVX is 14.3 µM (inactive); in the test on MDA-MB-435, 16.1 µM (inactive); in the test with NCI/ADR-RES, 19.6 µM (inactive); in the test with HCT-15, 13.7 µM; in the test on MDA-MB-231, 0.119 µM (active); with SK-MEL-5 it was 2.2 µM (inactive). The GI50 was 5.48 µM (inactive) with T47D; 11.3 µM (inactive) with COLO 205; 20.8 µM (inactive) with NCI-H460; 11.4 µM (inactive) in the test on CAKI-1; 11.7 µM (inactive) in the test on TK-10; 16.4 µM (inactive) in the test with UO-31. Besides, the GI50 is 19 µM (inactive) in the test on SN12C; 4.81 µM (inactive) with SR; 16.1 µM (inactive) in the test on HCC 2998; 1.68 µM (inactive) in the test with SF-539; 20.5 µM (inactive) with SK-MEL-28.
Regarding `COc1cc(CN2CCCCC2)cc2cc(C(=O)O)c(=O)oc12`, the GI50 was > 100 µM (inactive) in the test with EKVX; > 100 µM (inactive) with MDA-MB-435; > 100 µM (inactive) in the test with NCI/ADR-RES; more than 100 µM with HCT-15; > 100 µM (inactive) with MDA-MB-231; > 100 µM (inactive) in the test with SK-MEL-5. The GI50 is > 70.1 µM (inactive) with T47D; > 100 µM (inactive) in the test with A498; > 100 µM (inactive) in the test on COLO 205; > 100 µM (inactive) in the test with NCI-H460; > 100 µM (inactive) with CAKI-1; > 100 µM (inactive) in the test on TK-10. Besides, the GI50 in the test with UO-31, in the test with SN12C, in the test on HCC 2998, with SF-539, with NCI-H226 and in the test with SK-MEL-28 was > 100 µM (inactive) each time.
Consider `CNC(=O)CNC(=O)CCC(=O)OC`, for which the GI50 with MDA-MB-435, in the test with NCI/ADR-RES, in the test on MDA-MB-231, in the test with SK-MEL-5, in the test with T47D and in the test on A498 was > 100 µM (inactive) throughout. The GI50 in the test on COLO 205, in the test with NCI-H460, in the test with CAKI-1, in the test on TK-10, in the test with UO-31 and in the test on SN12C was > 100 µM (inactive) in each case. The GI50 with SF-539 and with SK-MEL-28 was > 100 µM (inactive) each time.
For the molecule `Cc1cc(C)nc(SCC(=O)OC2CC(C)CCC2C(C)C)n1` (configuration not stated), the GI50 is 17.9 µM (inactive) in the test with EKVX; 23.6 µM (inactive) with MDA-MB-435; 17 µM (inactive) in the test on NCI/ADR-RES; 15.6 µM in the test on HCT-15; 17.9 µM (inactive) in the test on MDA-MB-231; 15.2 µM (inactive) in the test on SK-MEL-5. The GI50 in the test with T47D was 14.8 µM (inactive); in the test on A498, 18.1 µM (inactive); in the test with COLO 205, 16.7 µM (inactive); in the test with NCI-H460 it was 18.8 µM (inactive); in the test with CAKI-1 it was 20.3 µM (inactive); in the test on TK-10, 34.3 µM (inactive). In addition, the GI50 with UO-31 is 18.7 µM (inactive); in the test on SN12C, 19.1 µM (inactive); with SK-MEL-28, 26 µM (inactive).
As to `Cc1cc(O)c(C(C)C)cc1CN1CCCCC1`, the GI50 was > 100 µM (inactive) in the test on EKVX; > 100 µM (inactive) in the test on MDA-MB-435; > 100 µM (inactive) with NCI/ADR-RES; more than 100 µM in the test on HCT-15; > 100 µM (inactive) in the test on MDA-MB-231; > 100 µM (inactive) in the test on SK-MEL-5. Further, the GI50 in the test with T47D, with A498, in the test on COLO 205, with NCI-H460, in the test on CAKI-1 and in the test with TK-10 was > 100 µM (inactive) each time. Moreover, the GI50 in the test on UO-31, in the test on SN12C, in the test on HCC 2998, in the test on SF-539, in the test with NCI-H226 and in the test on SK-MEL-28 was > 100 µM (inactive) in each case.
Turning to `CCCCCC(/C=C/[C@@H]1[C@@H](C(O)CCCCCC(=O)OC)C(=O)C[C@H]1O[Si](C)(C)C(C)(C)C)OCOCCOC` (some centres not stated), the GI50 is 18.8 µM (inactive) with EKVX; 8 µM (inactive) in the test with MDA-MB-435; 18.9 µM (inactive) in the test with NCI/ADR-RES; 7.98 µM with HCT-15; 21.7 µM (inactive) in the test with MDA-MB-231; 14.5 µM (inactive) with SK-MEL-5. Further, the GI50 is 21.4 µM (inactive) in the test on T47D; 20 µM (inactive) with A498; 18.9 µM (inactive) in the test with COLO 205; 29.7 µM (inactive) in the test on NCI-H460; 17.2 µM (inactive) in the test on CAKI-1; 16.6 µM (inactive) in the test on TK-10. In addition, the GI50 in the test with UO-31 is 15.6 µM (inactive); with SN12C, 19.7 µM (inactive); in the test with HCC 2998, 23 µM (inactive); with SF-539, 7.11 µM (inactive); in the test with NCI-H226, 18.2 µM (inactive); with SK-MEL-28, 15.3 µM (inactive).
Turning to `CC(=O)Oc1cc(C(F)(F)F)ccc1C(=O)OC1(C)OC(=O)c2ccc(C(F)(F)F)cc2O1` (configuration not stated), the GI50 in the test with EKVX is > 100 µM (inactive); in the test on MDA-MB-435, > 100 µM (inactive); in the test on NCI/ADR-RES, > 100 µM (inactive); in the test with HCT-15 it was more than 100 µM; in the test with MDA-MB-231 it was > 100 µM (inactive); in the test with T47D, > 100 µM (inactive). In addition, the GI50 in the test on A498, in the test with COLO 205, with NCI-H460, in the test on CAKI-1, in the test with TK-10 and in the test with UO-31 was > 100 µM (inactive) in each case. Besides, the GI50 was 97.5 µM (inactive) in the test on SN12C; > 100 µM (inactive) in the test with HCC 2998; > 100 µM (inactive) in the test on SF-539; > 100 µM (inactive) in the test on NCI-H226; > 100 µM (inactive) with SK-MEL-28.
Consider `O=C1CCN(CCC(F)(F)C(F)(F)C(F)(F)C(F)(F)C(F)(F)C(F)(F)F)C(=S)N1CCC(F)(F)C(F)(F)C(F)(F)C(F)(F)C(F)(F)C(F)(F)F`, for which the GI50 in the test on EKVX, in the test with MDA-MB-435, in the test on MDA-MB-231, in the test on SK-MEL-5, with T47D and in the test on A498 was > 100 µM (inactive) each time. Also, the GI50 in the test on COLO 205, in the test on NCI-H460, with CAKI-1, in the test with TK-10, in the test on UO-31 and in the test on SN12C was > 100 µM (inactive) each time. For the same molecule, the GI50 in the test with SR, in the test with HCC 2998, in the test on SF-539, with NCI-H226 and in the test on SK-MEL-28 was > 100 µM (inactive) each time.
